biological target: T1, glucocorticoid receptor (Homo sapiens, UniProt P04150); assay: Ligand binding assay (GRBind), 3H-dexamethasone displacement in HeLa cell lysate; conditions: 3H-DEX tracer
T1 construct: endogenous in cells; host or cells: HeLa (ATCC) cell lysate supernatant
T1 sequence (P04150 1-777): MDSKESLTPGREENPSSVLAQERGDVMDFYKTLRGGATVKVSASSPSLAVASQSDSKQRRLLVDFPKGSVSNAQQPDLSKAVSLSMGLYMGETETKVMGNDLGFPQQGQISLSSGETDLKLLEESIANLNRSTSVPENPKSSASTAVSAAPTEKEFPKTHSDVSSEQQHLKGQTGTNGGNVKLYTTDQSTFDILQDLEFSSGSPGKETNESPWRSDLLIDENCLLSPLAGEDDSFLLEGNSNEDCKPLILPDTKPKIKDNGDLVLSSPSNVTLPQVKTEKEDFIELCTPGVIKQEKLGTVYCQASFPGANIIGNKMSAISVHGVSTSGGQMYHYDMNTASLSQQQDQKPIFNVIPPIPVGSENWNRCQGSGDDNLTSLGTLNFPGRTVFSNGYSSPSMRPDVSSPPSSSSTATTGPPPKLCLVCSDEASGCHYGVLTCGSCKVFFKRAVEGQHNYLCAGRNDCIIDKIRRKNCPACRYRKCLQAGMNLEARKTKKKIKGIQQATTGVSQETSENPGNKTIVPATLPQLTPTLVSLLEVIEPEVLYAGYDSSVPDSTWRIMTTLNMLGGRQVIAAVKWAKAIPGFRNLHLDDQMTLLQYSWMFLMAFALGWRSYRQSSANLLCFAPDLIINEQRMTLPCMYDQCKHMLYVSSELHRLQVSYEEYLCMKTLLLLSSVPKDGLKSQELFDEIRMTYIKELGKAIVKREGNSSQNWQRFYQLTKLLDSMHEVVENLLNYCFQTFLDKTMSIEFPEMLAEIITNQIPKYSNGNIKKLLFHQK
Experimental: Binding Buffer: TEGM (10 mM Tris-HCl, 1 mM EDTA, 10% glycerol, 1 mM betamecaptoethanol, 10 mM Sodium Molybdate, pH 7.2)
50% HAP Slurry: Calbiochem Hydroxylapatite, Fast Flow, in 10 mM Tris, pH 8.0 and 1 mM EDTA.
Wash Buffer: 40 mM Tris, pH7.5, 100 mM KCl, 1 mM EDTA and 1 mM EGTA. 95% EtOH Dexmethasone-methyl-3H, (DEXA*); (Amersham cat#TRK645) Dexamethasone(DEX) (Sigma, cat#01756):
Hydroxylapatite Fast Flow; Calbiochem Cat#391947
25 Molybdate=Molybdic Acid (Sigma, M1651)
5 Cells (Hall R. E., et al., European Journal of Cancer, 30A: 484-490 (1994)) HeLa (ATCC) cultured in RPMI 1640 (Gibed 11835-055) containing 20 mM Hepes, 4 mM L-glu, 10 ug/ml of human insulin (Sigma, 1-0259), 10% FBS and 20 uglml of Gentamicin (Gibco#15710072) are rinsed twice in PBS. Phenol red-free Trypsin-EDTA is diluted in the same PBS 1:10. The cell layers are rinsed with IX Trypsin, extra Trypsin is poured out, and the cell layers are incubated at 37° C. for 2 min. The flask is tapped and checked for signs of cell detachment. Once the cells begin to slide off the flask, the complete media is added. The cells are counted at this point, then diluted to the appropriate concentration and split into flasks or dishes for further culturing (Usually 1:3 to 1:6 dilution).
Preparation of HeLa Cell Lysate
When the cells are 70 to 85% confluent, they are detached as described above, and collected by centrifuging at 1000 g for 10 min at 4° C. The cell pellet is washed twice with TEGM (10 mM Tris-HCl, 1 mM EDTA, 10% glycerol, 1 mM beta-mercaptoethanol, 10 mM Sodium Molybdate, pH 7.2). After the final wash, the cells are resuspended in TEGM at a concentration of 10^7 cells/mL. The cell suspension is snap frozen in liquid nitrogen or ethanol/dry ice bath and transferred to −80° C. freezer on dry ice. Before setting up the binding assay, the frozen samples are left on ice-water to just thaw. Then the samples are centrifuged at 12,500 g to 20,000 g for 30 min at 4° C. The supernatant is used to set-up assay right away. If using 50 μL of supernatant, the test compound can be prepared in 50 μL of the TEGM buffer.
Procedure for Multiple Compound Screening
1×TEGM buffer is prepared, and the isotope-containing assay mixture is prepared in the following order: EtOH (2% final concentration in reaction), 3H-DEX (Amersham Biosciences) and 1×TEGM. [e.g. For 100 samples, 200 JlL (100×2) of EtOH+4.25 JlL of 1:10 ^3H-Dex stock+2300 μL (100×23) 1×TEGM]. The compound is serially diluted, e.g., if starting final conc. is 1 μM, and the compound is in 25 μL of solution, for duplicate samples, 75 μL of 4×1 μM solution is made and 3 μL of 100). 1M is added to 72 μL of buffer, and 1:5 serial dilution.
25 μL of ^3H-DEX (6 nM) trace and 25 μL, compound solution are first mixed together, followed by addition of 50 μL receptor solution. The reaction is gently mixed, spun briefly at about 200 rpm and incubated at 4° C. overnight. 100 μL of 50% HAP slurry is prepared and added to the incubated reaction which is then vortexed and incubated on ice for 5 to 10 min. The reaction mixture is vortexed twice more to resuspend HAP while incubating reaction. The samples in 96-well format are then washed in wash buffer using the FilterMate™ Universal Harvester plate washer (Packard). The washing process transfers HAP pellet containing ligand-bound expressed receptor to Unifilter-96 GFIB filter plate (Packard). The HAP pellet on the filter plate is incubated with […] of MICROSCINT (Packard) scintillant for 30 min before being counted on the TopCount microscintillation counter (Packard). IC50s are calculated using DEX as a reference.

SMILES | Ki
COc1cccc(CC[C@]2(O)CCC3=Cc4c(cnn4-c4ccc(F)cc4)C[C@@]32C2CC2)c1C(N)=O [Example 38, 2-{2-[(4aR,5R)-4a-Cyclopropyl-1-(4-fluorophenyl)-5-hydroxy-1,4,4a,5,6,7-hexahydrocyclopenta[f]indazol-5-yl]ethyl}-6-methoxybenzamide] | 1.25 nM
NC(=O)c1cc(F)ccc1CC[C@]1(O)CCC2=Cc3c(cnn3-c3ccc(F)cc3)C[C@@]21C1CC1 [Example 39, 2-{2-[(4aR,5R)-4a-Cyclopropyl-1-(4-fluorophenyl)-5-hydroxy-1,4,4a,5,6,7-hexahydrocyclopenta[f]indazol-5-yl]ethyl}-5-fluorobenzamide] | 1.98 nM
CC[C@]12Cc3cnn(-c4ccc(F)cc4)c3C=C1CC[C@@]2(O)CCc1ccccc1S(=O)(=O)C(C)C [Example 40, (4aS,5R)-4a-Ethyl-1-(4-fluorophenyl)-5-{2-[2-(propan-2-ylsulfonyl)phenyl]ethyl}-1,4,4a,5,6,7-hexahydrocyclopenta[f]indazol-5-ol] | 2.45 nM
CC[C@]12Cc3cnn(-c4ccc(F)cc4)c3C=C1CC[C@@]2(O)CCc1nccc(C2CC2)c1C(=O)OC [Example 41, Methyl 4-cyclopropyl-2-{2-[(4aS,5R)-4a-ethyl-1-(4-fluorophenyl)-5-hydroxy-1,4,4a,5,6,7-hexahydrocyclopenta[f]indazol-5-yl]ethyl}pyridine-3-carboxylate] | 2.63 nM
CC[C@]12Cc3cnn(-c4ccc(F)cc4)c3C=C1CC[C@@]2(O)CCc1ccccc1S(C)(=O)=O [Example 42, (4aS,5R)-4a-Ethyl-1-(4-fluorophenyl)-5-{2-[2-(methylsulfonyl)phenyl]ethyl}-1,4,4a,5,6,7-hexahydrocyclopenta[f]indazol-5-ol] | 1.97 nM
NC(=O)CNC(=O)c1cccnc1CC[C@]1(O)CCC2=Cc3c(cnn3-c3ccc(F)cc3)C[C@@]21C1CC1 [Example 43, N-(2-Amino-2-oxoethyl)-2-{2-[(4aR,5R)-4a-cyclopropyl-1-(4-fluorophenyl)-5-hydroxy-1,4,4a,5,6,7-hexahydrocyclopenta[f]indazol-5-yl]ethyl}pyridine-3-carboxamide] | 5.47 nM
NC(=O)CNC(=O)c1cc(F)cnc1CC[C@]1(O)CCC2=Cc3c(cnn3-c3ccc(F)cc3)C[C@@]21C1CC1 [Example 44, N-(2-Amino-2-oxoethyl)-2-{2-[(4aR,5R)-4a-cyclopropyl-1-(4-fluorophenyl)-5-hydroxy-1,4,4a,5,6,7-hexahydrocyclopenta[f]indazol-5-yl]ethyl}-5-fluoropyridine-3-carboxamide] | 4.6 nM
CC(C)(CO)NC(=O)c1ccccc1CC[C@]1(O)CCC2=Cc3c(cnn3-c3ccc(F)cc3)C[C@@]21C1CC1 [Example 45, 2-{2-[(4aR,5R)-4a-Cyclopropyl-1-(4-fluorophenyl)-5-hydroxy-1,4,4a,5,6,7-hexahydrocyclopenta[f]indazol-5-yl]ethyl}-N-(1-hydroxy-2-methylpropan-2-yl)benzamide] | 2.09 nM
O=C(NC1(CO)CC1)c1ccccc1CC[C@]1(O)CCC2=Cc3c(cnn3-c3ccc(F)cc3)C[C@@]21C1CC1 [Example 46, 2-{2-[(4aR,5R)-4a-Cyclopropyl-1-(4-fluorophenyl)-5-hydroxy-1,4,4a,5,6,7-hexahydrocyclopenta[f]indazol-5-yl]ethyl}-N-[1-(hydroxymethyl)cyclopropyl]benzamide] | 1.99 nM
NC(=O)CNC(=O)c1ccccc1CC[C@]1(O)CCC2=Cc3c(cnn3-c3ccc(F)cc3)C[C@@]21C1CC1 [Example 47, N-(2-Amino-2-oxoethyl)-2-{2-[(4aR,5R)-4a-cyclopropyl-1-(4-fluorophenyl)-5-hydroxy-1,4,4a,5,6,7-hexahydrocyclopenta[f]indazol-5-yl]ethyl}benzamide] | 1.43 nM
CC(C)(CO)NC(=O)c1cc(F)cnc1CC[C@]1(O)CCC2=Cc3c(cnn3-c3ccc(F)cc3)C[C@@]21C1CC1 [Example 48, 2-{2-[(4aR,5R)-4a-Cyclopropyl-1-(4-fluorophenyl)-5-hydroxy-1,4,4a,5,6,7-hexahydrocyclopenta[f]indazol-5-yl]ethyl}-5-fluoro-N-(1-hydroxy-2-methylpropan-2-yl)pyridine-3-carboxamide] | 3.55 nM
NC(=O)c1c(C2CC2)ccnc1CC[C@]1(O)CCC2=Cc3c(cnn3-c3ccc(F)cc3)C[C@@]21C1CC1 [Example 49, 4-Cyclopropyl-2-{2-[(4aR,5R)-4a-cyclopropyl-1-(4-fluorophenyl)-5-hydroxy-1,4,4a,5,6,7-hexahydrocyclopenta[f]indazol-5-yl]ethyl}pyridine-3-carboxamide] | 2.7 nM
O=C(NCCO)c1ccccc1CC[C@]1(O)CCC2=Cc3c(cnn3-c3ccc(F)cc3)C[C@@]21C1CC1 [Example 50, 2-{2-[(4aR,5R)-4a-Cyclopropyl-1-(4-fluorophenyl)-5-hydroxy-1,4,4a,5,6,7-hexahydrocyclopenta[f]indazol-5-yl]ethyl}-N-(2-hydroxyethyl)benzamide] | 2.09 nM
CC[C@]12Cc3cnn(-c4ccc(F)cc4)c3C=C1CC[C@@]2(O)CCc1ccccc1S(=O)(=O)CC [Example 51, (4aS,5R)-4a-Ethyl-5-{2-[2-(ethylsulfonyl)phenyl]ethyl}-1-(4-fluorophenyl)-1,4,4a,5,6,7-hexahydrocyclopenta[f]indazol-5-ol] | 2.45 nM
CC[C@]12Cc3cnn(-c4ccc(F)cc4)c3C=C1CC[C@@]2(O)CCc1ncccc1C(N)=O [Example 52, 2-{2-[(4aS,5R)-4a-Ethyl-1-(4-fluorophenyl)-5-hydroxy-1,4,4a,5,6,7-hexahydrocyclopenta[f]indazol-5-yl]ethyl}pyridine-3-carboxamide] | 9.83 nM
CC[C@]12Cc3cnn(-c4ccc(F)cc4)c3C=C1CC[C@@]2(O)CCc1ncc(F)cc1C(N)=O [Example 53, 2-{2-[(4aS,5R)-4a-Ethyl-1-(4-fluorophenyl)-5-hydroxy-1,4,4a,5,6,7-hexahydrocyclopenta[f]indazol-5-yl]ethyl}-5-fluoropyridine-3-carboxamide] | 5.97 nM
COc1ccnc(CC[C@]2(O)CCC3=Cc4c(cnn4-c4ccc(F)cc4)C[C@@]32C2CC2)c1C(N)=O [Example 54, 2-{2-[(4aR,5R)-4a-Cyclopropyl-1-(4-fluorophenyl)-5-hydroxy-1,4,4a,5,6,7-hexahydrocyclopenta[f]indazol-5-yl]ethyl}-4-methoxypyridine-3-carboxamide] | 2.44 nM
